Test results as given in PMC7549094 (Journal of Medicinal Chemistry, 2020).

Experiments:
[1] = brain/plasma exposure in mice; assay type: in vivo; conditions: mouse, brain, read-out: brain/plasma AUC ratio
hr CB1 ag = hr CB1 ag (Homo sapiens, UniProt P21554); assay: receptor profile (Table S4); assay type: biochemical
hr CCKa = target: T1, hr CCKa (Homo sapiens, UniProt P32238); assay: receptor profile (Table S4); assay type: binding
T1 sequence (P32238 1-428): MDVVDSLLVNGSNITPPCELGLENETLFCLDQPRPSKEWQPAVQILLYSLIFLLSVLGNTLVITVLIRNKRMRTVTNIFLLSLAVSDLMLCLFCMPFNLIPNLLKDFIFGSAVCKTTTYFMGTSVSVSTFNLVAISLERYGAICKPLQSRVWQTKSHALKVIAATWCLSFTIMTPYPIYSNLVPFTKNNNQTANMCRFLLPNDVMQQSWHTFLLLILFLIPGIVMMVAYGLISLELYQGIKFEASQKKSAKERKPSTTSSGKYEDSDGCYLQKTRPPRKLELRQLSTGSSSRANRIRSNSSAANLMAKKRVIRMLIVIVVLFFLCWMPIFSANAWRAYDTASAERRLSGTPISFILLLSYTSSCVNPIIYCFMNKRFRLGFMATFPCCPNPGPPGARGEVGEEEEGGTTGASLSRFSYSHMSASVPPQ

hr PR ag = target: T2, hr PR ag (Homo sapiens, UniProt P06401); assay: receptor profile (Table S4); assay type: biochemical
T2 sequence (P06401 1-933): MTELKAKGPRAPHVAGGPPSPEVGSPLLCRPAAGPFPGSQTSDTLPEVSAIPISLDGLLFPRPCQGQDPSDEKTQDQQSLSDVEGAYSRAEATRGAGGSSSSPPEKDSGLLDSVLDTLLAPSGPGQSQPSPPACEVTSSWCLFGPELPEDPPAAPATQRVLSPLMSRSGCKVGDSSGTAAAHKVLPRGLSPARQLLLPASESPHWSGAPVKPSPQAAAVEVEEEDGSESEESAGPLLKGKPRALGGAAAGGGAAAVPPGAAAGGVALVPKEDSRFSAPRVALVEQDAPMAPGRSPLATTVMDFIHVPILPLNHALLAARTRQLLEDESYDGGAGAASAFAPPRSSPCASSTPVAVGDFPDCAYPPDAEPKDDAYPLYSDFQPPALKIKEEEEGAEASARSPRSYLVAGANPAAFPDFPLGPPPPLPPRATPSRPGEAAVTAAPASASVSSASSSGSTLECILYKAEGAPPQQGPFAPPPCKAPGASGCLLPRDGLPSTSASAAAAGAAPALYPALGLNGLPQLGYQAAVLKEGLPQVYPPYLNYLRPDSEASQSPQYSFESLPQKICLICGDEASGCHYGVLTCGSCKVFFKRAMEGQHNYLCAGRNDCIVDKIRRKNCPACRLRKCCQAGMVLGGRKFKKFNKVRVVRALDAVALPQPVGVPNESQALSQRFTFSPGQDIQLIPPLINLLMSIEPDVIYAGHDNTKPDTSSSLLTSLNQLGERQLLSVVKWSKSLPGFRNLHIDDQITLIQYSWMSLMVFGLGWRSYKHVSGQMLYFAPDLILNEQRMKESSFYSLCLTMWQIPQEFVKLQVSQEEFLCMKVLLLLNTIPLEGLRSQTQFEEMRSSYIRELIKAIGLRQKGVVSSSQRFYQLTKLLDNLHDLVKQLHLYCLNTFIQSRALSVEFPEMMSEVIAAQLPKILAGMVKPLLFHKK

hr COX-2 = target: T3, hr COX-2 (Homo sapiens, UniProt P35354); assay: receptor profile (Table S4); assay type: biochemical
T3 sequence (P35354 18-604): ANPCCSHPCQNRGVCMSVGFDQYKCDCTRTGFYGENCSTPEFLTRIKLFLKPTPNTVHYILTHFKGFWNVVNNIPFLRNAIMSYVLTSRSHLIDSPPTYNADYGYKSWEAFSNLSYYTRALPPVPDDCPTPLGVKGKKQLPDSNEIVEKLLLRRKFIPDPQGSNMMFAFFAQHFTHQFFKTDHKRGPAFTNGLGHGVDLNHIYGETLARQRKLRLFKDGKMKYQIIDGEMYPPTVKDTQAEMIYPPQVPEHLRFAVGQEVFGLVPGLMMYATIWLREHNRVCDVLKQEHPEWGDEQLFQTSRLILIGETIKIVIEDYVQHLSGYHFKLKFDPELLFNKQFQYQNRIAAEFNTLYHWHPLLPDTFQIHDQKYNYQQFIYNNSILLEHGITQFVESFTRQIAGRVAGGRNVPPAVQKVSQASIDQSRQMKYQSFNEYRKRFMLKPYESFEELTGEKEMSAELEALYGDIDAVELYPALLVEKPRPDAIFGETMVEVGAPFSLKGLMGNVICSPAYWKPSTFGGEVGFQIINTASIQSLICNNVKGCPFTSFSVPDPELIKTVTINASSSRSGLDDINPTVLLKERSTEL

hr KDR = hr KDR (Homo sapiens, UniProt P35968); assay: receptor profile (Table S4); assay type: biochemical
Sequence of hr KDR (P35968 20-1356): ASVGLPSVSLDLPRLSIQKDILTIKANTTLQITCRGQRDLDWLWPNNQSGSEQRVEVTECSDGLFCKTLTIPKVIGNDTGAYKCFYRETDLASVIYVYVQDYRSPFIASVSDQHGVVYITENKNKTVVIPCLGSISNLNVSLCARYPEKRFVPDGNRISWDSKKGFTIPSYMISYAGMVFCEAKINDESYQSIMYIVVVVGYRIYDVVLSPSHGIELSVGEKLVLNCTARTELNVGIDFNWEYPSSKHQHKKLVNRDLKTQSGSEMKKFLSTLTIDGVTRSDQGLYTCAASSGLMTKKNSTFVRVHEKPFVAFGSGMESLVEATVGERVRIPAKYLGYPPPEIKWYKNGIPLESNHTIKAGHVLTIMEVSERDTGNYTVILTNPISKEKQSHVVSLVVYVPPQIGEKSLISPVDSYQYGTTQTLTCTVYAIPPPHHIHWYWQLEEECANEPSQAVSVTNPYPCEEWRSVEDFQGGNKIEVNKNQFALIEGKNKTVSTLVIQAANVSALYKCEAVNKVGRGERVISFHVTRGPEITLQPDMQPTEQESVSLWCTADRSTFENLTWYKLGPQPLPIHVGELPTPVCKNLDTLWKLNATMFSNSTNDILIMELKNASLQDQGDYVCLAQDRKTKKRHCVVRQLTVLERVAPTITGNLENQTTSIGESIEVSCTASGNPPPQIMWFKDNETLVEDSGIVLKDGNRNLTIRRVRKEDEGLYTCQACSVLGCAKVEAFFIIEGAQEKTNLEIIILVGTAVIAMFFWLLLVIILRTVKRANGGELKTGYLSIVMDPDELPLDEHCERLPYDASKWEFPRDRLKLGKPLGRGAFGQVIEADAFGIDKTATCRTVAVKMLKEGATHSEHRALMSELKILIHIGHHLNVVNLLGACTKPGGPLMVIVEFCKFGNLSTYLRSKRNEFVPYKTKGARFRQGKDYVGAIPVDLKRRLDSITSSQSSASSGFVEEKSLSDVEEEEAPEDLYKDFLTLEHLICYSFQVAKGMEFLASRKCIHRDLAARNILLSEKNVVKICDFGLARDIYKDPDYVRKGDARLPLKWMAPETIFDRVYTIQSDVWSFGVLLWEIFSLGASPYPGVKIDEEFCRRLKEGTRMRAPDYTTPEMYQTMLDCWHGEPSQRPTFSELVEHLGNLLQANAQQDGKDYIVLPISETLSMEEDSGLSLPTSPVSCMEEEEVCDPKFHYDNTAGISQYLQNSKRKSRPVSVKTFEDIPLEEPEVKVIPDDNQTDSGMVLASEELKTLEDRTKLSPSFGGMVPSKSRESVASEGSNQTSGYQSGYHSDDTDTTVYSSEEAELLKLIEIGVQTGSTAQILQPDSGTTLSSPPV

in vivo = conditions: male, Sprague-Dawley, rat

Sequence of hr CB1 ag (P21554 whole entry): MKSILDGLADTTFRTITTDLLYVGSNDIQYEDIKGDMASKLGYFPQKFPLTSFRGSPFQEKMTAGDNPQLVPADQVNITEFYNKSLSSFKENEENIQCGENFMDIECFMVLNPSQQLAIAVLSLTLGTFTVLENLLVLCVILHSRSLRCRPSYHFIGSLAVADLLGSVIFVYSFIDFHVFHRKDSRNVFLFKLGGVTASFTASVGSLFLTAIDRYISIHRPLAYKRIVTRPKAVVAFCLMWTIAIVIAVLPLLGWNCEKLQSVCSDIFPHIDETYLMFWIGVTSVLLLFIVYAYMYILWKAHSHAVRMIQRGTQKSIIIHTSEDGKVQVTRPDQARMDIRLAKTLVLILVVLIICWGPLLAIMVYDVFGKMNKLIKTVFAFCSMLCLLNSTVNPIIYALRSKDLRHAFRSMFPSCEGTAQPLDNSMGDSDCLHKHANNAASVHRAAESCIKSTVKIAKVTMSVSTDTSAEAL

Structure (SMILES): Cc1nc(C)c(C(=O)Nc2ccc(F)c(-c3nc4ncc(-c5ncccc5C)cn4n3)c2)o1 [compound 1, N-(4-Fluoro-3-(6-(3-methylpyridin-2-yl)-[1,2,4]triazolo[1,5-a]pyrimidin-2-yl)phenyl)-2,4-dimethyloxazole-5-carboxamide]
- Kp [1]: 0.03
- EC50/IC50 (hr CB1 ag; hr CB1 ag): > 30 µM
- inhibition at 10 µM (hr CB1 ag; read-out: % inh/act @ 10 µM): 0%
- inhibition at 30 µM (hr CB1 ag; read-out: % inh/act @ 30 µM): 3%
- EC50/IC50 (hr CCKa; hr CCKa): > 30 µM
- inhibition at 10 µM (hr CCKa; read-out: % inh/act @ 10 µM): 12%
- inhibition at 30 µM (hr CCKa; read-out: % inh/act @ 30 µM): 50%
- EC50/IC50 (hr PR ag; hr PR ag): > 30 µM
- inhibition at 10 µM (hr PR ag; read-out: % inh/act @ 10 µM): -2%
- inhibition at 30 µM (hr PR ag; read-out: % inh/act @ 30 µM): 0%
- EC50/IC50 (hr COX-2; hr COX-2): > 30 µM
- inhibition at 10 µM (hr COX-2; read-out: % inh/act @ 10 µM): 9%
- inhibition at 30 µM (hr COX-2; read-out: % inh/act @ 30 µM): 13%
- EC50/IC50 (hr KDR; hr KDR): > 30 µM
- inhibition at 10 µM (hr KDR; read-out: % inh/act @ 10 µM): 21%
- inhibition at 30 µM (hr KDR; read-out: % inh/act @ 30 µM): 22%
- clearance (in vivo; in vivo, iv, 3 mg/kg): 2.1 mL/min/kg
- MRT (in vivo; plasma, iv, 3 mg/kg): 4.3 h
- Vd (in vivo; plasma, iv, 3 mg/kg): 0.53 L/kg
- half-life (in vivo; plasma, iv, 3 mg/kg): 3.8 h
- bioavailability (in vivo; plasma, po, 10 mg/kg): 67%
